In brackets after ≈: the same amount, converted by molar mass.
Key:
[1] = tested on: mouse embryo fibroblasts of the Balb/c 3T3 clone 31 line; assay: In vitro phototoxicity test 3T3 NRU; type: cell-based; conditions: BALB/c3T3, light or radiation study
Protocol: The cytotoxicity is evaluated by determining cell viability using a vital stain: neutral red, 24 hours after treatment with the reference elements and the extract of M. peregrina according to the invention with or without UVA irradiation. […] The positive control is a chlorpromazine solution (CAS No.: 69-09-0). The negative control is a diluent for the test extract and for the reference (buffered saline solution±1% solvent). The peptide hydrolyzate was tested at eight concentrations in at least four culture wells per concentration studied, in the presence or absence of UVA. […]
The seeded plates were incubated for 24 hours at 37° C. and 5% CO2. […] The pH of the highest concentration was measured; it was between 6.5 and 7.8. […] The spectral irradiance of the test device was measured in the wavelength range from 250 to 700 nanometers with a calibrated spectroradiometer.
One of the two plates was irradiated with its cover on at room temperature, and the other plate was protected from UVA and was maintained at room temperature during the irradiation. […] The next day, the cell viability (growth, morphology, monolayer integrity) was evaluated by observations using a phase-contrast microscope. […] The absorbance values were measured at 450 nm.

DKK-1 = DKK-1 synthesis and release, ELISA; type: cell-based, human; conditions: tested at 100 nm; p<0.01
Protocol: The object of this study is to evaluate the effect of the compound known as “peregrina peptide hydrolyzate” on DKK-1 synthesis and release in a model composed of normal human fibroblasts in monolayer culture.
Protocol: Human fibroblast cells were obtained from a donor. To perform the experiments, the fibroblasts were grown as a monolayer culture until confluence was reached. 100 nM dexamethasone was used as a reference inducer of DKK-1 synthesis and release.
[…] were incubated for 48 hours in the absence (control) or presence of reference product or test product: Peregrina peptide hydrolyzate: 0.01%; 0.1% and 0.5% (v/v).
At the end of the incubation, the incubation media were removed to perform the DKK-1 release measurement.
The test compound “peregrina peptide hydrolyzate” was diluted directly in the incubation medium so as to reach the various concentrations described above.
At the end of the 48-hour incubation period, the DKK-1 released into the incubation media was quantified by means of a specific sensitive ELISA kit.
At the end of the incubation period, the proteins contained in the cell lyzates were quantified by means of a spectrocolorimetric method (Bradford method).
The results are expressed as ng DKK-1 per mg of protein (mean±S.D.).

Row | Compound | IC50 ([1]; in the absence of UVA) [µg/mL] | IC50 ([1]; in the presence of UVA) [µg/mL] | increase of released DKK-1 relative to the control (DKK-1) [%]
1 | CN(C)CCCN1c2ccccc2Sc2ccc(Cl)cc21 [Chlorpromazine, chlorpromazine] | 7 to 90 (≈ 22 to 282 µM) | 0.1 to 2 | 
2 | C[C@@H]1C[C@H]2[C@@H]3CCC4=CC(=O)C=C[C@]4(C)[C@@]3(F)[C@@H](O)C[C@]2(C)[C@@]1(O)C(=O)CO [dexamethasone] |  |  | 181.8

From patent US12303587B2, “Extract of Moringa peregrina seed cake, method for obtaining same and use thereof in cosmetic or nutricosmetic compositions” (AGENCE FRANCAISE POUR LE DEVELOPPEMENT D'AL ULA, priority 2020, dated 2025)
